Results published in ChEMBL document CHEMBL4808180, “Identification of 2,2-Dimethylbutanoic Acid (HST5040), a Clinical Development Candidate for the Treatment of Propionic Acidemia and Methylmalonic Acidemia” (J Med Chem, 2021).

Key:
[1] = Drug level in Gottingen minipig blood at 10 mg/kg, po using radiolabeled compound measured after 72 hrs by quantitative whole-body autoradiography; type: ADME, organism-based, Sus scrofa domesticus; settings: pig, in vivo, BLD = below limit of detection
[2] = AUC (0 to infinity) in Sprague-Dawley rat at 10 mg/kg, po; type: ADME, organism-based; set-up: time infinity, route oral, dose 10 mg/kg; settings: in vivo
[3] = Drug metabolism in Gottingen minipig urine assessed as HST5040-glycine metabolite formation at 10 mg/kg administered as single dose by LC/MS analysis; type: ADME, organism-based, Sus scrofa domesticus; settings: pig, in vivo
[4] = Drug metabolism in Beagle dog hepatocytes assessed as formation of 2,2-dimethylbutanoic acid-CoA incubated for 1 hrs by MS/MS analysis; type: ADME, cell-based; settings: Canis lupus familiaris, Hepatocyte
[5] = target: Cytochrome P450 3A4 (Homo sapiens, UniProt P08684); assay: Time-dependent inhibition of CYP3A4 in human liver microsomes using midazolam as substrate preincubated for 30 mins; type: ADME
Sequence of Cytochrome P450 3A4 (P08684 whole entry): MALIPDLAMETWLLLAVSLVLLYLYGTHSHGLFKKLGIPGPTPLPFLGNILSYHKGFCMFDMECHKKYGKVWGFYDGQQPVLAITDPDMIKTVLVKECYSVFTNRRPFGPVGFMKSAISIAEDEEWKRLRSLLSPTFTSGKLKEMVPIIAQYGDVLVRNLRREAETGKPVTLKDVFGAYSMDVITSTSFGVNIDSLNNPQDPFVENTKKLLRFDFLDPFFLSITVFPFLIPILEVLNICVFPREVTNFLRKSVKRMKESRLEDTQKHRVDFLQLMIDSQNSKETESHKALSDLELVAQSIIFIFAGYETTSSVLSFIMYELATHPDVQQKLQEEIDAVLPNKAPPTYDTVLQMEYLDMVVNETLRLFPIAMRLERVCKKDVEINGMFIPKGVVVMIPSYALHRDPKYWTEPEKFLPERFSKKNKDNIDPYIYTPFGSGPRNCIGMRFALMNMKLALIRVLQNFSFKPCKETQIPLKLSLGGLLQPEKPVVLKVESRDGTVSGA

[6] = target: T1, Cytochrome P450 2B6 (Homo sapiens, UniProt P20813); assay: Time-dependent inhibition of CYP2B6 in human liver microsomes using bupropion as substrate preincubated for 30 mins; type: ADME
T1 sequence (P20813 whole entry): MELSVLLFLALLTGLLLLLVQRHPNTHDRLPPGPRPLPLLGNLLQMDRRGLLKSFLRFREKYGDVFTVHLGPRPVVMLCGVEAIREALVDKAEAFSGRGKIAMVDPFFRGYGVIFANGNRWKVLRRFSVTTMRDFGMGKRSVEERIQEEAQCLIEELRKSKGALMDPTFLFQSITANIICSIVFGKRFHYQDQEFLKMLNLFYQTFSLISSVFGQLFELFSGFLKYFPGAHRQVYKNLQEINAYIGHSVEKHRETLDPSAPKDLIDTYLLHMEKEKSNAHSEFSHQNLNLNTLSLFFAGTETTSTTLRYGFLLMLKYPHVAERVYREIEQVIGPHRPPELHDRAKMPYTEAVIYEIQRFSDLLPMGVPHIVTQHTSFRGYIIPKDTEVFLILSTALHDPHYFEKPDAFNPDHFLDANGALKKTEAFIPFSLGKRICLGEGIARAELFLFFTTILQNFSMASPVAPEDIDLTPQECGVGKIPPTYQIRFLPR

[7] = Reduction of methylmalonyl-CoA in human hepatocytes derived from methylmalonic acidemia at 30 uM pretreated for 30 mins followed by 13C-isoleucine addition and measured after 1 hr by MS/MS analysis relative to control; type: functional, Hepatocyte; set-up: scale not given: the % may be the effect or the level left; settings: time 90 min, 1.5 h
[8] = Half life in Sprague-Dawley rat at 10 mg/kg, iv; type: ADME, organism-based; settings: in vivo
[9] = target: T2, OAT3 (Homo sapiens, UniProt Q8TCC7); assay: Inhibition of human OAT3 assessed as reduction in OAT3-mediated tenofovir transport at 14900 uM relative to control; settings: not told, probe tenofovir
T2 sequence (Q8TCC7 whole entry): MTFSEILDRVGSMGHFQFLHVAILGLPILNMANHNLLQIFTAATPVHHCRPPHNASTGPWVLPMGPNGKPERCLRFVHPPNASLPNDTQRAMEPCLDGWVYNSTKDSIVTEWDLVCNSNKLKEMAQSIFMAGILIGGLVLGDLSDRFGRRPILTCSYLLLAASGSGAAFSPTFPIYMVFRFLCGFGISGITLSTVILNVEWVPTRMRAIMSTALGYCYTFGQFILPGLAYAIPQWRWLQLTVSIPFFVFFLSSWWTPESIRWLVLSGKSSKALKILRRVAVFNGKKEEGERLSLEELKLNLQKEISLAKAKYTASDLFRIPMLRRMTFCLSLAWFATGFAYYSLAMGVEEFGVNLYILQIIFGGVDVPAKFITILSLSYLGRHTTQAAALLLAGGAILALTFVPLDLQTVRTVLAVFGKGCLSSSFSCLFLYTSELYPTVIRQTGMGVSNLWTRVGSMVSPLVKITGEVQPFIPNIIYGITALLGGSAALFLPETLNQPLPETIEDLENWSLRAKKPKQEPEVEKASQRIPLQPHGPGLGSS

[10] = Reduction of propionyl carnitine in human hepatocytes derived from propionic acidemia patient pretreated for 30 mins followed by 13C-isoleucine addition and measured after 1 hr by MS/MS analysis; type: functional, cell-based; settings: hepatocyte
[11] = Induction of toxicity in minipig assessed as increase in albumin to […] ratio at 300 mg/kg/day; type: organism-based, Sus scrofa domesticus; settings: pig, in vivo
[12] = Induction of toxicity in minipig assessed as increase in serum albumin concentration at 300 mg/kg/day; type: organism-based, Sus scrofa domesticus; settings: pig, in vivo
[13] = target: T3, OATP1B1 (Homo sapiens, UniProt Q9Y6L6); assay: Inhibition of human OATP1B1 assessed as reduction in OATP1B1- mediated E217betaG transport at 14900 uM relative to control; settings: not told, probe E217betaG
T3 sequence (Q9Y6L6 whole entry): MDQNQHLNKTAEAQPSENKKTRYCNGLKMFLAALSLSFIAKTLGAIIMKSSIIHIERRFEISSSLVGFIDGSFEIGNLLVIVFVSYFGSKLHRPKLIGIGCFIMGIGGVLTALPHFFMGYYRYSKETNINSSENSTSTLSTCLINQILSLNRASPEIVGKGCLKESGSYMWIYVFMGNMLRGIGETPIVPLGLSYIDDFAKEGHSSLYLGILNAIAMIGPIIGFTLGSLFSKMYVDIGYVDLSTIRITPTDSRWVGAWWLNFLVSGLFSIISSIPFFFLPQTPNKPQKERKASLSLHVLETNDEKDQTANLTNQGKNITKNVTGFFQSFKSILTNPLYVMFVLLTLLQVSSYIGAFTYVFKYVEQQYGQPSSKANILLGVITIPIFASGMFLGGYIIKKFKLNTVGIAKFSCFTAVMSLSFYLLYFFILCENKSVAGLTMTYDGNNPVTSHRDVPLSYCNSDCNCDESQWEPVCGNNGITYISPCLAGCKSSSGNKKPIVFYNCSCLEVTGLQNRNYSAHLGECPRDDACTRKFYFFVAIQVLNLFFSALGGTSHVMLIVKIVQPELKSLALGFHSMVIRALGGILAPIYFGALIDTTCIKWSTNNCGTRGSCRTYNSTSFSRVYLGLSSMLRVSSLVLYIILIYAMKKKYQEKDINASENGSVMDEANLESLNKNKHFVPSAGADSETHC

[14] = Half life in Sprague-Dawley rat at 200 mg/kg, po; type: ADME, organism-based; settings: in vivo
[15] = Drug metabolism in human hepatocytes assessed as formation of 2,2-dimethylbutanoic acid-CoA incubated for 1 hrs by MS/MS analysis; type: ADME, cell-based; settings: Hepatocyte

CCC(C)(C)C(=O)O [DIMEBUTIC ACID]
Drug uptake [1]: Bld | AUC(0-inf) [2]: 5520 ng·h/mL | Drug metabolism [3]: Metabolite_Detected | EC50 [4]: 60 µM | IC50 [5]: > 10000 µM | IC50 [6]: > 10000 µM | Activity [7]: -55% | half-life [8]: 3.93 h | inhibition at 14900 µM [9]: 90.9% | EC50 [10]: 2.6 µM | Activity [11]: Toxic | Activity [12]: Toxic | inhibition at 14900 µM [13]: 25.9% | half-life [14]: 2.73 h | EC50 [15]: 5.9 µM
